How the values were obtained:
[1] = biological target: Glutamate receptor ionotropic, NMDA 1/2A (Homo sapiens, UniProt Q12879+Q05586); experiment: Inhibition of recombinant GluN1/GluN2A receptor (unknown origin) expressed in HEK293 cells assessed as inhibition of glutamate-evoked current by whole-cell voltage-clamp method
[2] = biological target: Glutamate receptor ionotropic, NMDA 1/2B (Homo sapiens, UniProt Q05586+Q13224); experiment: Inhibition of recombinant GluN1/GluN2B receptor (unknown origin) expressed in HEK293 cells assessed as inhibition of glutamate-evoked current by whole-cell voltage-clamp method
Chain of Glutamate receptor ionotropic, NMDA 1/2B (Q13224 whole entry, other chains not shown): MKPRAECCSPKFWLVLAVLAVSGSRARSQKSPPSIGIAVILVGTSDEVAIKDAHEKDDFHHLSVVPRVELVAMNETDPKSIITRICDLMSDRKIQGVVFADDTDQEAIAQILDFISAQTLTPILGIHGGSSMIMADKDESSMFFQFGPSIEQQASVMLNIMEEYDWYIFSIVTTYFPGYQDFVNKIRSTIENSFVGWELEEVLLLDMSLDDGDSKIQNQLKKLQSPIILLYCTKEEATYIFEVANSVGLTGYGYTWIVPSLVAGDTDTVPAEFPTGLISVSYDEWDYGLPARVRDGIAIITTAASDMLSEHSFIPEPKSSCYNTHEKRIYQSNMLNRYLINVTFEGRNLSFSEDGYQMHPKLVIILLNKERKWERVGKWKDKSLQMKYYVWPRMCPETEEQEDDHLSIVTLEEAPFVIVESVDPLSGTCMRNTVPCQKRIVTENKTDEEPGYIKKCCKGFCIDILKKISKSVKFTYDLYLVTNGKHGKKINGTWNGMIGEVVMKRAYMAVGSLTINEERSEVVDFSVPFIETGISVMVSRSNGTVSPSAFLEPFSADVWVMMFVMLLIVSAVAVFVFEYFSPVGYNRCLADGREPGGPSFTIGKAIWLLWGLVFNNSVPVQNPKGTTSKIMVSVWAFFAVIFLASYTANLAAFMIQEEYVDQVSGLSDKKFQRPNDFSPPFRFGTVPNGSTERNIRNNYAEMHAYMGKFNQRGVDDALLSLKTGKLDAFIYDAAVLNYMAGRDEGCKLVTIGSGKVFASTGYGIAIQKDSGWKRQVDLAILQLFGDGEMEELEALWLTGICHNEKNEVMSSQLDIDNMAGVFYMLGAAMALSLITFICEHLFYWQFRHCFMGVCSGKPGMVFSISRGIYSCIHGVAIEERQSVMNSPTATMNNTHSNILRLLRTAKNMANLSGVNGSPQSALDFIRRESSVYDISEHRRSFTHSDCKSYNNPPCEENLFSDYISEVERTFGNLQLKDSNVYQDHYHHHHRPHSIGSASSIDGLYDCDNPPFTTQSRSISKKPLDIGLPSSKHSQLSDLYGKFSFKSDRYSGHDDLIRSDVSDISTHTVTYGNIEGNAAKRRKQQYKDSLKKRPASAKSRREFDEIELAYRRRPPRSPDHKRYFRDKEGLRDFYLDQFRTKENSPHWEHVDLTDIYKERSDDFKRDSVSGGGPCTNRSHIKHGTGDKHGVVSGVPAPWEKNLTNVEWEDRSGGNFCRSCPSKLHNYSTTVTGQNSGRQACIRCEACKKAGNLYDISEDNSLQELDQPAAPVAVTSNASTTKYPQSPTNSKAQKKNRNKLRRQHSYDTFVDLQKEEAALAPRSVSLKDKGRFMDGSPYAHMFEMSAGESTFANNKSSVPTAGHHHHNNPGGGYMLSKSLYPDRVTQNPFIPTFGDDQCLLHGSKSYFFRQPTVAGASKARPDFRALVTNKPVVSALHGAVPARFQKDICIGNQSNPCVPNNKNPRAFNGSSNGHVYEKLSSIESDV

[3] = biological target: Glutamate receptor ionotropic, NMDA 1/2C (Homo sapiens, UniProt Q05586+Q14957); experiment: Inhibition of recombinant GluN1/GluN2C receptor (unknown origin) expressed in HEK293 cells assessed as inhibition of glutamate-evoked current by whole-cell voltage-clamp method
Chain of Glutamate receptor ionotropic, NMDA 1/2C (Q14957 whole entry, other chains not shown): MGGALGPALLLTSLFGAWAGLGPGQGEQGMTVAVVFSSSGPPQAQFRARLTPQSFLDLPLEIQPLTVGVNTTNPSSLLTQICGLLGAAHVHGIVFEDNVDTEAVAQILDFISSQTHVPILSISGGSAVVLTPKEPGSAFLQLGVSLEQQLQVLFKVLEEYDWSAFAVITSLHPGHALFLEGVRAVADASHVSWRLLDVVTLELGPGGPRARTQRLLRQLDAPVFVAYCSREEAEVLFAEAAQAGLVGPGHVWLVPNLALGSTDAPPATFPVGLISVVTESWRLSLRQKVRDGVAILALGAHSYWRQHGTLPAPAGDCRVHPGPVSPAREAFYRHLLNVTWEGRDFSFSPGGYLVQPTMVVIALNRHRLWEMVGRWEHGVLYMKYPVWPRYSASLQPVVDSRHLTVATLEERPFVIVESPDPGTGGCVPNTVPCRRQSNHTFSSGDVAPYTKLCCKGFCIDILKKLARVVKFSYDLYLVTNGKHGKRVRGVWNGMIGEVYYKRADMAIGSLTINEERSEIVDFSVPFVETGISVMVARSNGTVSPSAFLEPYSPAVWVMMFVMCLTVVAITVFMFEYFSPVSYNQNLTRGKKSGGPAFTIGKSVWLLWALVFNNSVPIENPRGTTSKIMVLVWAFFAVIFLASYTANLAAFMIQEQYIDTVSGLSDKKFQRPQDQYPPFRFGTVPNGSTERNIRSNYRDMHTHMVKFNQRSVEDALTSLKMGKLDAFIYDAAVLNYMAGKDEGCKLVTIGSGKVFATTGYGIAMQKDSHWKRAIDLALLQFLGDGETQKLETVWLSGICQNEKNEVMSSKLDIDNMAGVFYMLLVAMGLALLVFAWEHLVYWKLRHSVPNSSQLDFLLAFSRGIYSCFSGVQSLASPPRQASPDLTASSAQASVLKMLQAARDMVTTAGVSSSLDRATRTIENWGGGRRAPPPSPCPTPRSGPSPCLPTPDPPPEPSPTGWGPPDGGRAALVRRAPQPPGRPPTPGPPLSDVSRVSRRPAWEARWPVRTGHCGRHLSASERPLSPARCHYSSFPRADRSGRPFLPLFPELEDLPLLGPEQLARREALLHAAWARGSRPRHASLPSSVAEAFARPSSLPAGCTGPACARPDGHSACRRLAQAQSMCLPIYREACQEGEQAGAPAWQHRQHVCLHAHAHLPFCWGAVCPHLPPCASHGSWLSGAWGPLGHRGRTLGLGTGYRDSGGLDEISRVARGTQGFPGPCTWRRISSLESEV

[4] = biological target: Glutamate receptor ionotropic, NMDA 1/2D (Homo sapiens, UniProt Q05586+O15399); experiment: Inhibition of recombinant GluN1/GluN2D receptor (unknown origin) expressed in HEK293 cells assessed as inhibition of glutamate-evoked current by whole-cell voltage-clamp method
Chain of Glutamate receptor ionotropic, NMDA 1/2D (O15399 whole entry, other chains not shown): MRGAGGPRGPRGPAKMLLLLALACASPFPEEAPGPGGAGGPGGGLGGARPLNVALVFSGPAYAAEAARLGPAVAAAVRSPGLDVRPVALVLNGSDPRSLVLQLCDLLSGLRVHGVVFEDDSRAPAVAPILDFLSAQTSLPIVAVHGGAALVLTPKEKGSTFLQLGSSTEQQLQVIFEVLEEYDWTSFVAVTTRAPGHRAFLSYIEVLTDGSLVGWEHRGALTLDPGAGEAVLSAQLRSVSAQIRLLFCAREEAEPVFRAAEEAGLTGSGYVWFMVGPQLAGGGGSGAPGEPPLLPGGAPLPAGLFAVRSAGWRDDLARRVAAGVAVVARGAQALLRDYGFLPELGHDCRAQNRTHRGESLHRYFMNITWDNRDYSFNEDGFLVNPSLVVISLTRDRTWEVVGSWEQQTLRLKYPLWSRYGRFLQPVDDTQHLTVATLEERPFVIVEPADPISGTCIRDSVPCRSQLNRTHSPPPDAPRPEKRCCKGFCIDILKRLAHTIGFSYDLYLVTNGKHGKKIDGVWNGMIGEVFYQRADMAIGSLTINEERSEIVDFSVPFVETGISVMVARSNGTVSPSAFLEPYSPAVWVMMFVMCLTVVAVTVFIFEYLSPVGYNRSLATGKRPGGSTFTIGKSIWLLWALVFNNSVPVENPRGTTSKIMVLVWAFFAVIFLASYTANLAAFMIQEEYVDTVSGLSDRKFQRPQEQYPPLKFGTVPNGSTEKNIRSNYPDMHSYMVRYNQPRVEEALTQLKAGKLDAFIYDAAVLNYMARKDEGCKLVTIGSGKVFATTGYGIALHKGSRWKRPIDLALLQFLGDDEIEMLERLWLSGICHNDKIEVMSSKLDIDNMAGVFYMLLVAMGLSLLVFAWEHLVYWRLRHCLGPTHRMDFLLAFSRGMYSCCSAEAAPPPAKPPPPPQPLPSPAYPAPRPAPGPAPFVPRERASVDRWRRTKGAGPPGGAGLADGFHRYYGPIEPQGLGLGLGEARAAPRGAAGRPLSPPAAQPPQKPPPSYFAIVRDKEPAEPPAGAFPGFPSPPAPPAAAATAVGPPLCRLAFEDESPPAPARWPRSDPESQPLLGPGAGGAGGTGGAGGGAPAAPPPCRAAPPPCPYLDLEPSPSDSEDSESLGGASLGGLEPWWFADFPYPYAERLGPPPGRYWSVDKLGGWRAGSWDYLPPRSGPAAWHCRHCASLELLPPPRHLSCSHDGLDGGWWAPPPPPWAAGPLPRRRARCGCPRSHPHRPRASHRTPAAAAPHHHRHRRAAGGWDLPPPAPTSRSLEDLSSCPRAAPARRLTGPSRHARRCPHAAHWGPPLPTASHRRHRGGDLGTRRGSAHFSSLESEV

**Q.** For C[C@H]1CC[C@H]2[C@@H]3CC[C@@H]4C[C@H](OS(=O)(=O)O)CC[C@]4(C)[C@H]3CC[C@]12C, which IC50 [1] is on record?
**A.** 600 nM

**Q.** What about the IC50 [2] of the same compound?
**A.** 600 nM

**Q.** And the IC50 [3]?
**A.** 400 nM

**Q.** And the IC50 [4]?
**A.** 500 nM

From BindingDB's records for doi:10.1021/acs.jmedchem.5b00570 (Academy of Sciences of The Czech Republic V.V.I., 2015)
